Results as given in ChEMBL document CHEMBL1201862, “PubChem BioAssay data set” (2004).
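Test compounds were applied to cells in 96-well plates for 48 hours at 5 doses. Abbreviation: GI50, concentration required for 50% inhibition of growth.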 Calls of active or inactive are those of the source. No stated cut-off is given here; in the data, active = GI50 up to about 1.1 µM and inactive = higher.

Legend:
Test in all cases: DTP human tumour cell line panel, 48 h
KM12 = tested on: KM12
SNB-19 = tested on: SNB-19
SF-268 = tested on: SF-268
SF-295 = tested on: SF-295
HCT-15 = tested on: HCT-15
NCI-H460 = tested on: NCI-H460
UACC-257 = tested on: UACC-257
SK-MEL-5 = tested on: SK-MEL-5
MDA-N = tested on: MDA-N
IGROV-1 = tested on: IGROV-1
HOP-92 = tested on: HOP-92
Malme-3M = tested on: Malme-3M
A498 = tested on: A498
CAKI-1 = tested on: CAKI-1
SK-OV-3 = tested on: SK-OV-3
OVCAR-3 = tested on: OVCAR-3
SW-620 = tested on: SW-620
TK-10 = tested on: TK-10
EKVX = tested on: EKVX
M19-MEL = tested on: M19-MEL

| SMILES | GI50 (KM12) | GI50 (SNB-19) | GI50 (SF-268) | GI50 (SF-295) | GI50 (HCT-15) [µM] | GI50 (NCI-H460) | GI50 (UACC-257) | GI50 (SK-MEL-5) | GI50 (MDA-N) | GI50 (IGROV-1) | GI50 (HOP-92) | GI50 (Malme-3M) | GI50 (A498) | GI50 (CAKI-1) | GI50 (SK-OV-3) | GI50 (OVCAR-3) | GI50 (SW-620) | GI50 (TK-10) | GI50 (EKVX) | GI50 (M19-MEL) |
| --- | --- | --- | --- | --- | --- | --- | --- | --- | --- | --- | --- | --- | --- | --- | --- | --- | --- | --- | --- | --- |
| Cc1cc(O)c(C(C)C)cc1CN1CCCCC1 | > 100 µM (inactive) | > 100 µM (inactive) | > 100 µM (inactive) | > 100 µM (inactive) | > 100 | > 100 µM (inactive) | > 100 µM (inactive) | > 100 µM (inactive) | > 100 µM (inactive) | > 100 µM (inactive) | > 100 µM (inactive) | > 100 µM (inactive) | > 100 µM (inactive) | > 100 µM (inactive) | > 100 µM (inactive) | > 100 µM (inactive) | > 100 µM (inactive) | > 100 µM (inactive) | > 100 µM (inactive) |  |
| CC(C)Oc1cc2c(cc1O)CC[C@@H]1[C@@H]2CC[C@]2(C)[C@@H](O)CC[C@@H]12 | 4.2 µM (inactive) | 5.31 µM (inactive) | 5.93 µM (inactive) | 3 µM (inactive) | 1.61 | 3.28 µM (inactive) | 3.99 µM (inactive) | 3.01 µM (inactive) | 0.424 µM (active) | 6.14 µM (inactive) | 11.2 µM (inactive) | 3.82 µM (inactive) | 6.65 µM (inactive) | 1.52 µM (inactive) | 4.67 µM (inactive) | 2.81 µM (inactive) | 2.72 µM (inactive) | 11 µM (inactive) | 12.7 µM (inactive) |  |
| O=c1[nH]c(C2CCCCC2)nc2cc(Cl)ccc12 | > 100 µM (inactive) | > 100 µM (inactive) | > 100 µM (inactive) | 92.7 µM (inactive) | > 100 |  | > 100 µM (inactive) | > 100 µM (inactive) |  | > 100 µM (inactive) | 44 µM (inactive) | > 100 µM (inactive) |  | > 100 µM (inactive) | > 100 µM (inactive) | > 100 µM (inactive) | > 100 µM (inactive) | > 100 µM (inactive) | > 100 µM (inactive) | > 100 µM (inactive) |
| Cc1ccc(NC(=O)CC(=O)n2nc(-c3ccccc3)c(/N=N\c3ccccc3[N+](=O)[O-])c2-c2ccccc2)cc1 | > 100 µM (inactive) | 56.6 µM (inactive) | 51.2 µM (inactive) | 29 µM (inactive) |  | 35.8 µM (inactive) | > 100 µM (inactive) | 57.5 µM (inactive) |  | > 100 µM (inactive) | 28.2 µM (inactive) | 86.1 µM (inactive) |  | 69.7 µM (inactive) | 80.2 µM (inactive) | 82.8 µM (inactive) | > 100 µM (inactive) | > 100 µM (inactive) | > 100 µM (inactive) | > 100 µM (inactive) |
| Nc1nc(Cl)cc(NCC2(CO)CC(CCc3ccccc3)C2)n1 (stereo not drawn) | 83.9 µM (inactive) | > 100 µM (inactive) | > 55.8 µM (inactive) | 5.9 µM (inactive) | > 59.2 | 22.3 µM (inactive) | 0.461 µM (active) | 0.506 µM (active) | > 100 µM (inactive) | > 100 µM (inactive) | > 28.8 µM (inactive) | > 100 µM (inactive) | > 100 µM (inactive) | > 100 µM (inactive) | > 100 µM (inactive) | 5.07 µM (inactive) | > 100 µM (inactive) | > 70.5 µM (inactive) | 2.83 µM (inactive) |  |
| COC(=O)C1SC(SC)=NC12c1ccccc1Nc1ccccc12 (stereo not drawn) | 41.7 µM (inactive) | 40.5 µM (inactive) | 37.4 µM (inactive) | 32.7 µM (inactive) | 29.4 | 22.1 µM (inactive) | 25.7 µM (inactive) | 17.2 µM (inactive) | 26.8 µM (inactive) | 30.3 µM (inactive) | 20.8 µM (inactive) | 22 µM (inactive) | 41.8 µM (inactive) | 37.3 µM (inactive) | 45.8 µM (inactive) | 18.2 µM (inactive) | 36.6 µM (inactive) | 50 µM (inactive) | 30.1 µM (inactive) |  |
| COP(=O)(OC)/C(=N\Nc1ccc([N+](=O)[O-])cc1)NCc1ccccc1 | 24.5 µM (inactive) |  | 23.7 µM (inactive) | 25.8 µM (inactive) | 32.4 | 27.8 µM (inactive) | 21.8 µM (inactive) | 17.5 µM (inactive) |  | 30.8 µM (inactive) | 18.8 µM (inactive) | 38.5 µM (inactive) |  | 38.6 µM (inactive) |  | 33.4 µM (inactive) | 35.6 µM (inactive) | 30 µM (inactive) |  | 37.3 µM (inactive) |
| CC1(O)CCn2c(=O)c3cc4ccccc4cc3c(=O)n2C1O (stereo not drawn) | > 100 µM (inactive) | > 100 µM (inactive) | > 100 µM (inactive) | > 100 µM (inactive) | > 100 | > 100 µM (inactive) | > 100 µM (inactive) | > 100 µM (inactive) |  | > 100 µM (inactive) | 79.3 µM (inactive) | > 100 µM (inactive) |  | > 100 µM (inactive) | > 100 µM (inactive) | > 100 µM (inactive) | > 100 µM (inactive) | > 100 µM (inactive) | > 100 µM (inactive) | > 100 µM (inactive) |
